test system: human childhood brain tumor cell lines (PFSK-1); assay: Growth inhibitory activity against PFSK-1 cells (WST-8, Cell Counting Kit-8); format: cell-based; conditions: Homo sapiens, 72 h, 3 days incubation with test compound, WST-8 OD 450/630 nm, read-out: IC50 (concentration inhibiting 50% of the cell growth)
Method in brief: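 Cells seeded in RPMI 1640 with 10% FBS and preincubated 24 h at 37 °C, 5% CO2, then exposed to compound for 3 days. IC50 (nM) from growth relative to untreated control.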

| IC50 [nM] | Compound |
| --- | --- |
| 1.3 | Cc1cc(C2=NNC(=O)CC2C)c(F)c(Cl)c1OC/C=C\CO (stereo not drawn) [Example 151, 6-{3-Chloro-2-fluoro-4-[(Z)-4-hydroxy-2-butenyloxy]-5-methylphenyl}-5-methyl-4,5-dihydro-2H-pyridazin-3-one] |
| 2.9 | CC1CC(=O)NN=C1c1ccc(OC[C@H]2C[C@H]2CO)c(Cl)c1F (relative stereo) [Example 154, 6-(3-Chloro-2-fluoro-4-{[(1S*,2R*)-2-(hydroxymethyl)cyclopropyl]methoxy}phenyl)-5-methyl-4,5-dihydro-2H-pyridazin-3-one] |
| 2.2 | C=Cc1c(OCC(C)O)ccc(C2=NNC(=O)CC2C)c1F (stereo not drawn) [Example 59, 6-[2-fluoro-4-(2-hydroxypropoxy)-3-vinylphenyl]-5-methyl-4,5-dihydro-2H-pyridazin-3-one] |
| 3.9 | Cc1cc(C2=NNC(=O)C[C@H]2C)c(O)c(Cl)c1OCCCO [Example 181, (5R)-(−)-6-[3-chloro-2-hydroxy-4-(3-hydroxypropoxy)-5-methylphenyl]-5-methyl-4,5-dihydro-2H-pyridazin-3-one] |
| 4 | CC1CC(=O)NN=C1c1cc(F)c(OCCCO)c(Cl)c1 (stereo not drawn) [Example 15, 6-[3-Chloro-5-fluoro-4-(3-hydroxypropoxy)phenyl]-5-methyl-4,5-dihydro-2H-pyridazin-3-one] |
| 8 | CCc1c(OCCCO)ccc(C2=NNC(=O)CC2C)c1F (stereo not drawn) [Example 23, 6-[3-Ethyl-2-fluoro-4-(3-hydroxypropoxy)phenyl]-5-methyl-4,5-dihydro-2H-pyridazin-3-one] |
| < 1 | C[C@@H]1CC(=O)NN=C1c1cc(Cl)c(OCC(C)(C)CO)c(Br)c1 [Example 127, (5R)-(−)-6-[3-bromo-5-chloro-4-(3-hydroxy-2,2-dimethylpropoxy)phenyl]-5-methyl-4,5-dihydro-2H-pyridazin-3-one] |
| 3.3 | Cc1c(OCC(C)(C)O)ccc(C2=NNC(=O)C[C@H]2C)c1O [Example 179, (5R)-(−)-6-[2-hydroxy-4-(2-hydroxy-2-methylpropoxy)-3-methylphenyl]-5-methyl-4,5-dihydro-2H-pyridazin-3-one] |
| 4 | Cc1cc(C2=NNC(=O)CC2C)c(F)cc1OC(F)(F)CO (stereo not drawn) [Example 177, 6-[4-(1,1-difluoro-2-hydroxyethoxy)-2-fluoro-5-methylphenyl]-5-methyl-4,5-dihydro-2H-pyridazin-3-one] |
| 2.5 | CC1CC(=O)NN=C1c1cc(Cl)c(OCC2(O)CC2)c(Cl)c1 (stereo not drawn) [Example 170, 6-{3,5-Dichloro-4-[(1-hydroxycyclopropyl)methoxy]phenyl}-5-methyl-4,5-dihydro-2H-pyridazin-3-one] |
| 3.8 | CC(O)COc1c(F)cc(C2=NNC(=O)CC2C)cc1Cl (stereo not drawn) [Example 52, 6-[3-Chloro-5-fluoro-4-(2-hydroxypropoxy)phenyl]-5-methyl-4,5-dihydro-2H-pyridazin-3-one] |
| < 1 | C[C@@H]1CC(=O)NN=C1c1ccc(OCC(C)(C)O)c(Cl)c1F [Example 118, (5R)-(−)-6-[3-chloro-2-fluoro-4-(2-hydroxy-2-methylpropoxy)phenyl]-5-methyl-4,5-dihydro-2H-pyridazin-3-one] |
| 3.6 | Cc1cc(C2=NNC(=O)CC2C)c(O)c(Cl)c1OCC(C)(C)O (stereo not drawn) [Example 129, 6-[3-Chloro-2-hydroxy-4-(2-hydroxy-2-methylpropoxy)-5-methylphenyl]-5-methyl-4,5-dihydro-2H-pyridazin-3-one] |
| 2.8 | Cc1c(OCC(C)O)ccc(C2=NNC(=O)CC2C)c1F (stereo not drawn) [Example 58, 6-[2-Fluoro-4-(2-hydroxypropoxy)-3-methylphenyl]-5-methyl-4,5-dihydro-2H-pyridazin-3-one] |
| 2.4 | CC1CC(=O)NN=C1c1ccc(OCC2(O)CC2)c(Cl)c1F (stereo not drawn) [Example 47, 6-{3-chloro-2-fluoro-4-[(1-hydroxycyclopropyl)methoxy]phenyl}-5-methyl-4,5-dihydro-2H-pyridazin-3-one] |
| 2.9 | C[C@@H]1CC(=O)NN=C1c1ccc(OCCO)c(Cl)c1F [Example 126, (5R)-(−)-6-[3-Chloro-2-fluoro-4-(2-hydroxyethoxy)phenyl]-5-methyl-4,5-dihydro-2H-pyridazin-3-one] |

| IC50 [nM] | Compound |
| --- | --- |
| 5.1 | Cc1cc(C2=NNC(=O)CC2C)cc(F)c1OCC(C)(C)O (stereo not drawn) [Example 33, 6-[3-Fluoro-4-(2-hydroxy-2-methylpropoxy)-5-methylphenyl]-5-methyl-4,5-dihydro-2H-pyridazin-3-one] |
| 6.3 | Cc1c(F)c(C2=NNC(=O)CC2C)cc(Cl)c1OCC(C)(C)O (stereo not drawn) [Example 35, 6-[5-Chloro-2-fluoro-4-(2-hydroxy-2-methylpropoxy)-3-methylphenyl]-5-methyl-4,5-dihydro-2H-pyridazin-3-one] |
| 5.3 | CC1CC(=O)NN=C1c1ccc(OCC(C)(C)CO)c(Br)c1F (stereo not drawn) [Example 70, 6-[3-Bromo-2-fluoro-4-(3-hydroxy-2,2-dimethylpropoxy)phenyl]-5-methyl-4,5-dihydro-2H-pyridazin-3-one] |
| 7.6 | Cc1c(F)c(C2=NNC(=O)CC2C)cc(Cl)c1OCC(C)O (stereo not drawn) [Example 147, 6-[5-Chloro-2-fluoro-4-(2-hydroxypropoxy)-3-methylphenyl]-5-methyl-4,5-dihydro-2H-pyridazin-3-one] |
| 5.2 | CC1CC(=O)NN=C1c1cc(F)c(OCC2(O)CC2)c(Cl)c1F (stereo not drawn) [Example 172, 6-{3-Chloro-2,5-difluoro-4-[(1-hydroxycyclopropyl)methoxy]phenyl}-5-methyl-4,5-dihydro-2H-pyridazin-3-one] |
| 5.2 | Cc1c(OCC(C)(C)O)ccc(C2=NNC(=O)CC2C)c1F (stereo not drawn) [Example 34, 6-[2-Fluoro-4-(2-hydroxy-2-methylpropoxy)-3-methylphenyl]-5-methyl-4,5-dihydro-2H-pyridazin-3-one] |
| 2.7 | CC1CC(=O)NN=C1c1cc(F)c(OCC(C)(C)CO)c(Cl)c1F (stereo not drawn) [Example 139, 6-[3-Chloro-2,5-difluoro-4-(3-hydroxy-2,2-dimethylpropoxy)phenyl]-5-methyl-4,5-dihydro-2H-pyridazin-3-one] |
| 4.9 | Cc1c(OC/C=C\CO)ccc(C2=NNC(=O)CC2C)c1F (stereo not drawn) [Example 92, 6-[2-Fluoro-4-[(Z)-4-hydroxy-2-butenyloxy]-3-methylphenyl]-5-methyl-4,5-dihydro-2H-pyridazin-3-one] |
| 4.3 | Cc1cc(C2=NNC(=O)CC2C)cc(C)c1OCC1(O)CC1 (stereo not drawn) [Example 43, 6-{4-[(1-Hydroxycyclopropyl)methoxy]-3,5-dimethylphenyl}-5-methyl-4,5-dihydro-2H-pyridazin-3-one] |
| < 1 | Cc1cc(C2=NNC(=O)CC2C)c(F)c(Cl)c1OCC(F)(F)CO (stereo not drawn) [Example 159, 6-[3-Chloro-4-(2,2-difluoro-3-hydroxypropoxy)-2-fluoro-5-methylphenyl]-5-methyl-4,5-dihydro-2H-pyridazin-3-one] |
| 9 | CC1CC(=O)NN=C1c1ccc(OCC(C)(C)O)c(C#N)c1F (stereo not drawn) [Example 105, 2-Fluoro-6-(2-hydroxy-2-methylpropoxy)-3-(4-methyl-6-oxo-4,5-dihydro-1H-pyridazin-3-yl)benzonitrile] |
| 5.5 | Cc1cc(C2=NNC(=O)CC2C)cc(C)c1OCC(C)O (stereo not drawn) [Example 51, 6-[4-(2-Hydroxypropoxy)-3,5-dimethylphenyl]-5-methyl-4,5-dihydro-2H-pyridazin-3-one] |
| 2.3 | CC1CC(=O)NN=C1c1ccc(OCC(F)(F)CO)c(Br)c1F (stereo not drawn) [Example 112, 6-[3-bromo-4-(2,2-difluoro-3-hydroxypropoxy)-2-fluorophenyl]-5-methyl-4,5-dihydro-2H-pyridazin-3-one] |
| 3.3 | C[C@@H]1CC(=O)NN=C1c1ccc(OCC2(O)CC2)c(F)c1F [Example 123, (5R)-(−)-6-[2,3-Difluoro-4-[(1-hydroxycyclopropyl)methoxy]phenyl]-5-methyl-4,5-dihydro-2H-pyridazin-3-one] |
| 2.6 | CC1CC(=O)NN=C1c1cc(Cl)c(OCC2(O)CC2)c(Br)c1 (stereo not drawn) [Example 165, 6-{3-bromo-5-chloro-4-[(1-hydroxycyclopropyl)methoxy]phenyl}-5-methyl-4,5-dihydro-2H-pyridazin-3-one] |
| 2.3 | C[C@@H]1CC(=O)NN=C1c1ccc(OCC(C)(C)O)c(F)c1F [Example 124, (5R)-(−)-6-[2,3-difluoro-4-(2-hydroxy-2-methylpropoxy)phenyl]-5-methyl-4,5-dihydro-2H-pyridazin-3-one] |

| Compound | IC50 [nM] |
| --- | --- |
| CCC(O)COc1c(Cl)cc(C2=NNC(=O)CC2C)cc1Br (stereo not drawn) [Example 66, 6-[3-Bromo-5-chloro-4-(2-hydroxybutoxy)phenyl]-5-methyl-4,5-dihydro-2H-pyridazin-3-one] | 4.1 |
| CC1CC(=O)NN=C1c1cc(Cl)c(OCC(C)(C)CCO)c(Cl)c1 (stereo not drawn) [Example 100, 6-[3,5-dichloro-4-(4-hydroxy-2,2-dimethylbutoxy)phenyl]-5-methyl-4,5-dihydro-2H-pyridazin-3-one] | 1.6 |
| CC1CC(=O)NN=C1c1ccc(OCCCCO)c(Cl)c1F (stereo not drawn) [Example 84, 6-[3-Chloro-2-fluoro-4-(4-hydroxybutoxy)phenyl]-5-methyl-4,5-dihydro-2H-pyridazin-3-one] | 3.3 |
| C[C@@H]1CC(=O)NN=C1c1ccc(OCCCCO)c(Cl)c1O [Example 180, (5R)-(−)-6-[3-chloro-2-hydroxy-4-(4-hydroxybutoxy)phenyl]-5-methyl-4,5-dihydro-2H-pyridazin-3-one] | 6.5 |
| CCC(O)COc1ccc(C2=NNC(=O)CC2C)c(F)c1F (stereo not drawn) [Example 61, 6-[2,3-Difluoro-4-(2-hydroxybutoxy)phenyl]-5-methyl-4,5-dihydro-2H-pyridazin-3-one] | 4.7 |
| CCC(O)COc1c(F)cc(C2=NNC(=O)CC2C)cc1Cl (stereo not drawn) [Example 62, 6-[3-Chloro-5-fluoro-4-(2-hydroxybutoxy)phenyl]-5-methyl-4,5-dihydro-2H-pyridazin-3-one] | 8.9 |
| CC1CC(=O)NN=C1c1cc(Cl)c(OCCCCO)c(Cl)c1 (stereo not drawn) [Example 81, 6-[3,5-Dichloro-4-(4-hydroxybutoxy)phenyl]-5-methyl-4,5-dihydro-2H-pyridazin-3-one] | 4.7 |
